Experimental data published in patent US12673961B2 (Agios Pharmaceuticals, Inc., priority 2022, dated 2026).

molecular target: T1, human PAH with the R408W mutation (Homo sapiens, UniProt P00439, R408W); assay: Cell Based Phenylalanine Flux Assay; conditions: A375 cells expressing R408W PAH; 24 hrs with compound, then 20 μM sepiapterin and 800 μM 13C9,15N-Phenylalanine for 4 hours; 13C-Tyrosine in media by LC-MS; average where tested multiple times; read-out: AC50;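 note: Ten-point dose curve from 2-fold serial dilutions, run in duplicate at 0.5% DMSO final, tracer step used 20 µM sepiapterin and 800 µM labeled phenylalanine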
T1 construct: expressed in transfected cells
T1 sequence (P00439 1-452 R408W): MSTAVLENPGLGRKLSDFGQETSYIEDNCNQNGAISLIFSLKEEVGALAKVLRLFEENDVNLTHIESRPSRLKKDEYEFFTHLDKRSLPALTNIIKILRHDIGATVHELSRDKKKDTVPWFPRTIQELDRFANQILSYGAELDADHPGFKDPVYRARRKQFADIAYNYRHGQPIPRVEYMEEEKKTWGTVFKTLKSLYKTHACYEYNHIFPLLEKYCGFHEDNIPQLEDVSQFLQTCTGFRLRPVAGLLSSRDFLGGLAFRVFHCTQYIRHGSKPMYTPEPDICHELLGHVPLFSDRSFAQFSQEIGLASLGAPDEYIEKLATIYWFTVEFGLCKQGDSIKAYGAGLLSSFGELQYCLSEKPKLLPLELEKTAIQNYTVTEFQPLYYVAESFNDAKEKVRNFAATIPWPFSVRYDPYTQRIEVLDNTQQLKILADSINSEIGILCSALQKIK

Row | Compound | AC50 [µM]
1 | CC(C)(F)c1nnc(N2CCc3[nH]cnc3[C@H]2c2cc3c(C4CC4)cccn3n2)o1 (single isomer, unassigned) | > 5
2 | CN(C)c1nnc(C(=O)N2CCc3[nH]cnc3[C@H]2c2cc3ccccn3n2)o1 (single isomer, unassigned) | 1 to 5
3 | O=C(c1nnc(C2CC(F)(F)C2)o1)N1CCc2[nH]cnc2[C@H]1c1cc2cccc(C(F)F)n2n1 (single isomer, unassigned) | 1 to 5
4 | Cn1nc(C(F)F)nc1C(=O)N1CCc2[nH]cnc2[C@H]1c1cc2ccc(F)cn2n1 (single isomer, unassigned) | 1 to 5

same assay, conditions: A375 cells expressing human R408W PAH; 24 hrs compound incubation; 13C-Tyrosine by LC-MS; average where tested multiple times; read-out: AC50

Row | AC50 [µM] | Compound
5 | > 5 | Cc1ncccc1-c1nnc(C(=O)N2CCc3[nH]cnc3[C@@H]2c2cc3c(Cl)cccn3n2)o1 [Example 1357, (R)-(4-(4-chloropyrazolo [1,5-a]pyridin-2-yl)-6,7-dihydro-1H-imidazo[4,5-c]pyridin-5(4H)-yl)(5-(2-methylpyridin-3-yl)-1,3,4-oxadiazol-2-yl)methanone]
6 | 1 to 5 | CC(C)(C)c1nnc(C(=O)N2CCc3[nH]cnc3[C@@H]2c2cc3ccc(F)cn3n2)o1 [Example 1125, (R)-(5-(tert-butyl)-1,3,4-oxadiazol-2-yl)(4-(6-fluoropyrazolo[1,5-a]pyridin-2-yl)-6,7-dihydro-1H-imidazo[4,5-c]pyridin-5(4H)-yl)methanone]
7 | < 0.5 | O=C(c1nnc(-c2ncccc2F)o1)N1CCc2[nH]cnc2[C@H]1c1cc2c(F)cccn2n1 [Example 791, (S)-(4-(4-fluoropyrazolo[1,5-a]pyridin-2-yl)-6,7-dihydro-1H-imidazo[4,5-c]pyridin-5(4H)-yl)(5-(3-fluoropyridin-2-yl)-1,3,4-oxadiazol-2-yl) methanone]
8 | 0.5 to 1 | Cc1cccc2cc([C@@H]3c4nc[nH]c4CCN3C(=O)c3nnc(-c4cnn(C)c4)o3)nn12 [Example 800, (S)-(5-(1-methyl-1H-pyrazol-4-yl)-1,3,4-oxadiazol-2-yl)(4-(7-methylpyrazolo[1,5-a]pyridin-2-yl)-6,7-dihydro-1H-imidazo[4,5-c]pyridin-5(4H)-yl)methanone]
9 | < 0.5 | Cc1ncccc1-c1nnc(C(=O)N2CCc3[nH]cnc3[C@H]2c2cc3ccccn3n2)o1 [Example 1364]
10 | 1 to 5 | O=C(c1ccnn1C(F)F)N1CCc2[nH]cnc2[C@@H]1c1cc2cccc(Cl)n2n1 [Example 1065, (R)-(4-(7-chloropyrazolo [1,5-a]pyridin-2-yl)-6,7-dihydro-1H-imidazo[4,5-c]pyridin-5(4H)-yl)(1-(difluoromethyl)-1H-pyrazol-5-yl)methanone]
11 | 1 to 5 | Cn1nc(C(F)F)nc1C(=O)N1CCc2[nH]cnc2C1c1cc2c(Cl)cccn2n1 (stereo in doubt) [Example 781, (R)-(4-(4-chloropyrazolo [1,5-a]pyridin-2-yl)-6,7-dihydro-1H-imidazo[4,5-c]pyridin-5(4H)-yl)(3-(difluoromethyl)-1-methyl-1H-1,2,4-triazol-5-yl)methanone]

same assay, conditions: A375 cells expressing human R408W PAH; 24 hrs with compound, then sepiapterin and 13C9,15N-Phenylalanine for 4 hours; 13C-Tyrosine by LC-MS; average where tested multiple times; read-out: AC50

Row | Compound | AC50 [µM]
12 | O=C(c1nnc(-c2ccccn2)o1)N1CCc2[nH]cnc2[C@H]1c1cc2c(C3CC3)cccn2n1 [Example 1897, (S)-(4-(4-cyclopropylpyrazolo [1,5-a]pyridin-2-yl)-1,4,6,7-tetrahydro-5H-imidazo [4,5-c]pyridin-5-yl)(5-(pyridin-2-yl)-1,3,4-oxadiazol-2-yl)methanone] | 0.5 to 1
13 | O=C(c1nnc(-c2cnn(C(F)(F)F)c2)o1)N1CCc2[nH]cnc2[C@H]1c1cc2cccc(C(F)F)n2n1 [Example 1502, (S)-(4-(7-(difluoromethyl)pyrazolo[1,5-a]pyridin-2-yl)-6,7-dihydro-1H-imidazo [4,5-c]pyridin-5(4H)-yl)(5-(1-(trifluoromethyl)-1H-pyrazol-4-yl)-1,3,4-oxadiazol-2-yl)methanone] | 0.5 to 1
14 | Cc1cccn2nc([C@H]3c4nc[nH]c4CCN3c3ccccc3)cc12 [Example 2310, (R)-4-(4-methylpyrazolo [1,5-a]pyridin-2-yl)-5-phenyl-4,5,6,7-tetrahydro-1H-imidazo[4,5-c]pyridine] | 1 to 5
15 | CC(C)(F)c1nnc(C(=O)N2CCc3[nH]cnc3[C@H]2c2cc3c(Br)cccn3n2)o1 [Example 1938, (S)-(4-(4-bromopyrazolo [1,5-a]pyridin-2-yl)-1,4,6,7-tetrahydro-5H-imidazo [4,5-c]pyridin-5-yl)(5-(2-fluoropropan-2-yl)-1,3,4-oxadiazol-2-yl)methanone] | < 0.5
16 | Cn1nccc1-c1nnc(C(=O)N2CCc3[nH]cnc3[C@H]2c2cc3cccc(F)n3n2)o1 [Example 1526, (S)-(4-(7-fluoropyrazolo[1,5-a]pyridin-2-yl)-6,7-dihydro-1H-imidazo[4,5-c]pyridin-5(4H)-yl)(5-(1-methyl-1H-pyrazol-5-yl)-1,3,4-oxadiazol-2-yl)methanone] | 0.5 to 1
17 | COCc1ccc2c(C(=O)N3CCc4[nH]cnc4[C@H]3c3cc4c(F)cccn4n3)cnn2c1 [Example 1628, (4-(4-fluoropyrazolo[1,5-a]pyridin-2-yl)-6,7-dihydro-1H-imidazo[4,5-c]pyridin-5(4H)-yl)(6-(methoxymethyl)pyrazolo[1,5-a]pyridin-3-yl)methanone] | 0.5 to 1
18 | FC(F)c1cccn2nc([C@H]3c4nc[nH]c4CCN3c3nnc(C(F)(F)F)o3)cc12 [Example 1766, (R)-2-(4-(4-(difluoromethyl)pyrazolo[1,5-a]pyridin-2-yl)-6,7-dihydro-1H-imidazo [4,5-c]pyridin-5(4H)-yl)-5-(trifluoromethyl)-1,3,4-oxadiazole] | 0.5 to 1
19 | COc1cccn2nc([C@@H]3c4nc[nH]c4CCN3C(=O)c3cnn4cc(-c5ccn(C)n5)ccc34)cc12 [Example 1748, (S)-(4-(4-methoxypyrazolo [1,5-a]pyridin-2-yl)-6,7-dihydro-1H-imidazo[4,5-c]pyridin-5(4H)-yl)(6-(1-methyl-1H-pyrazol-3-yl)pyrazolo[1,5-a]pyridin-3-yl)methanone] | 0.5 to 1
20 | Cc1cccn2nc([C@@H]3c4nc[nH]c4CCN3c3ccccn3)cc12 [Example 2127, (S)-4-(4-methylpyrazolo [1,5-a]pyridin-2-yl)-5-(pyridin-2-yl)-4,5,6,7-tetrahydro-1H-imidazo[4,5-c]pyridine] | < 0.5

Now from value to molecule:

Row | AC50 [µM] | Compound
21 | > 5 | Cc1ncccc1-c1nnc(N2CCc3[nH]cnc3[C@@H]2c2cc3c(Cl)cccn3n2)o1 [Example 2237, (R)-2-(4-(4-chloropyrazolo [1,5-a]pyridin-2-yl)-1,4,6,7-tetrahydro-5H-imidazo [4,5-c]pyridin-5-yl)-5-(2-methylpyridin-3-yl)-1,3,4-oxadiazole]
22 | > 5 | Cc1nnc(C(=O)N2CCc3[nH]cnc3[C@@H]2c2cc3c(OC(F)(F)F)cccn3n2)o1 [Example 2219, (R)-(5-methyl-1,3,4-oxadiazol-2-yl)(4-(4-(trifluoromethoxy)pyrazolo [1,5-a]pyridin-2-yl)-6,7-dihydro-1H-imidazo[4,5-c]pyridin-5(4H)-yl)methanone]
23 | < 0.5 | O=C(c1ocnc1C1CC1)N1CCc2[nH]cnc2[C@H]1c1cc2c(C(F)F)cccn2n1 [Example 2039, (S)-(4-cyclopropyloxazol-5-yl)(4-(4-(difluoromethyl)pyrazolo [1,5-a]pyridin-2-yl)-1,4,6,7-tetrahydro-5H-imidazo[4,5-c]pyridin-5-yl)methanone]
24 | 1 to 5 | Cc1cccn2nc([C@H]3c4nc[nH]c4CCN3C(=O)c3oc(-c4ccccn4)nc3C3CC3)cc12 [Example 2121, (R)-(4-cyclopropyl-2-(pyridin-2-yl)oxazol-5-yl)(4-(4-methylpyrazolo[1,5-a]pyridin-2-yl)-1,4,6,7-tetrahydro-5H-imidazo[4,5-c]pyridin-5-yl)methanone]
25 | > 5 | CN(C)c1ccc2c(C(=O)N3CCc4[nH]cnc4[C@@H]3c3cc4cccc(Cl)n4n3)cnn2c1 [Example 2475, (R)-(4-(7-chloropyrazolo [1,5-a]pyridin-2-yl)-6,7-dihydro-1H-imidazo[4,5-c]pyridin-5(4H)-yl)(6-(dimethylamino)pyrazolo[1,5-a]pyridin-3-yl)methanone]
26 | 1 to 5 | Cc1cccc(-c2nnc(N3CCc4[nH]cnc4[C@H]3c3cc4ccccn4n3)o2)n1 [Example 2342, (S)-2-(6-methylpyridin-2-yl)-5-(4-(pyrazolo[1,5-a]pyridin-2-yl)-1,4,6,7-tetrahydro-5H-imidazo[4,5-c]pyridin-5-yl)-1,3,4-oxadiazole]
27 | < 0.5 | CC(C)(F)c1ncc(C(=O)N2CCc3[nH]cnc3[C@H]2c2cc3c(F)cccn3n2)o1 [Example 2064, (S)-(2-(2-fluoropropan-2-yl)oxazol-5-yl)(4-(4-fluoropyrazolo[1,5-a]pyridin-2-yl)-1,4,6,7-tetrahydro-5H-imidazo[4,5-c]pyridin-5-yl)methanone]
28 | < 0.5 | Cc1cccnc1-c1nnc(N2CCc3[nH]cnc3[C@H]2c2cc3c(Cl)cccn3n2)o1 [Example 2287]
29 | > 5 | Clc1cccn2nc([C@H]3c4nc[nH]c4CCN3c3nnc(-c4cccnc4)o3)cc12 [Example 2263, (R)-2-(4-(4-chloropyrazolo [1,5-a]pyridin-2-yl)-1,4,6,7-tetrahydro-5H-imidazo[4,5-c]pyridin-5-yl)-5-(pyridin-3-yl)-1,3,4-oxadiazole]
